Test results as given in US20210255193A1, “LYSINE REACTIVE PROBES AND USES THEREOF” (The Scripps Research Institute, priority 2017, published 2021).

How the values were obtained:
Experiment in all cases: competitive isoTOP-ABPP
Assay type in all cases: binding
[1] = target: T1, NLN Neurolysin, mitochondrial (Homo sapiens, UniProt Q9BYT8); conditions: 50 uM, 231 sol, in vitro; for R value (DMSO/fragment) for probe 1 labeling: Q9BYT8_K253
T1 construct: isoTOP-ABPP experiments performed in cell lysates (in vitro); endogenous in cells; host or cells: soluble proteome of human cancer cell lines (MDA-MB-231; Ramos and Jurkat also prepared)
Procedure, shortened: (§1)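 Here, isoTOP-ABPP measures loss of STP-alkyne labeling at individual lysines after fragment exposure in lysate. Activated esters are dosed at 50 μM, guanidinylating agents at 100 μM; the probe follows at 0.1 mM for 1 h. R ≥4 marks a liganded lysine.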

TTR Transthyretin = target: T2, TTR Transthyretin (Homo sapiens, UniProt P02766); conditions: for R value (DMSO/fragment) for probe 1 labeling: P02766_K35; for R value (DMSO/fragment) for probe 1 labeling / isoTOP-ABPP reactivity ratio at lysine P02766_K35: 231 sol
T2 construct: isoTOP-ABPP experiments performed in cell lysates (in vitro); endogenous in cells; host or cells: MDA-MB-231 soluble lysate
Procedure, shortened: as §1

[2] = target: T3, DNMT1 DNA (cytosine-5)-methyltransferase 1 (Homo sapiens, UniProt P26358); conditions: 50 uM, 231 sol, in vitro
T3 construct: isoTOP-ABPP experiments performed in cell lysates (in vitro); endogenous in cells; host or cells: soluble proteome of human cancer cell lines (MDA-MB-231; Ramos and Jurkat also prepared)
Procedure, shortened: as §1

[3] = target: T4, ATP6V1F V-type proton ATPase subunit F (Homo sapiens, UniProt Q16864); conditions: 50 uM, 231 sol, in vitro
T4 construct: isoTOP-ABPP experiments performed in cell lysates (in vitro); endogenous in cells; host or cells: soluble proteome of human cancer cell lines (MDA-MB-231; Ramos and Jurkat also prepared)
Procedure, shortened: as §1

[4] = target: T5, SOD2 Superoxide dismutase (Homo sapiens, UniProt P04179); conditions: 50 uM, 231 sol, in vitro
T5 construct: isoTOP-ABPP experiments performed in cell lysates (in vitro); endogenous in cells; host or cells: MDA-MB-231 soluble lysate
T5 sequence (P04179 25-222): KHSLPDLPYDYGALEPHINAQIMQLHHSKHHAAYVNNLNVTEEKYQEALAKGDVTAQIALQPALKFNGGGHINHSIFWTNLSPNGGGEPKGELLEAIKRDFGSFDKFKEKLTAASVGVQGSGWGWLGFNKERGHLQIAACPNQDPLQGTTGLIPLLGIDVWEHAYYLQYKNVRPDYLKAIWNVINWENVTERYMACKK
Procedure, shortened: as §1

[5] = target: T6, FH Fumarate hydratase, mitochondrial (Homo sapiens, UniProt P07954); conditions: 50 uM, 231 sol, in vitro
T6 construct: isoTOP-ABPP experiments performed in cell lysates (in vitro); endogenous in cells; host or cells: MDA-MB-231 soluble lysate
T6 sequence (P07954 45-510): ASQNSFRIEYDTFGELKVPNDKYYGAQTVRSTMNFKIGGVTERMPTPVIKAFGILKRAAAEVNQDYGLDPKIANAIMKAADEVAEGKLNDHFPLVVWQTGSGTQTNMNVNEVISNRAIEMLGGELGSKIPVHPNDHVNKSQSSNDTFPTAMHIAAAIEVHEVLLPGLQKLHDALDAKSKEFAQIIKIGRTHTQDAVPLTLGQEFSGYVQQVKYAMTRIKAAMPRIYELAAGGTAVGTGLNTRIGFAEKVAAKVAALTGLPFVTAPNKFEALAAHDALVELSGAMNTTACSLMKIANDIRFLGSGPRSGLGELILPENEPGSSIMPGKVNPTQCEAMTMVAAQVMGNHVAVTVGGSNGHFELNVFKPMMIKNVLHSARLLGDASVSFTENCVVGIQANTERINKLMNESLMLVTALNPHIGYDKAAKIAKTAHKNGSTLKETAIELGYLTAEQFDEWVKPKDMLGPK
Procedure, shortened: as §1

T1 sequence (Q9BYT8 38-704): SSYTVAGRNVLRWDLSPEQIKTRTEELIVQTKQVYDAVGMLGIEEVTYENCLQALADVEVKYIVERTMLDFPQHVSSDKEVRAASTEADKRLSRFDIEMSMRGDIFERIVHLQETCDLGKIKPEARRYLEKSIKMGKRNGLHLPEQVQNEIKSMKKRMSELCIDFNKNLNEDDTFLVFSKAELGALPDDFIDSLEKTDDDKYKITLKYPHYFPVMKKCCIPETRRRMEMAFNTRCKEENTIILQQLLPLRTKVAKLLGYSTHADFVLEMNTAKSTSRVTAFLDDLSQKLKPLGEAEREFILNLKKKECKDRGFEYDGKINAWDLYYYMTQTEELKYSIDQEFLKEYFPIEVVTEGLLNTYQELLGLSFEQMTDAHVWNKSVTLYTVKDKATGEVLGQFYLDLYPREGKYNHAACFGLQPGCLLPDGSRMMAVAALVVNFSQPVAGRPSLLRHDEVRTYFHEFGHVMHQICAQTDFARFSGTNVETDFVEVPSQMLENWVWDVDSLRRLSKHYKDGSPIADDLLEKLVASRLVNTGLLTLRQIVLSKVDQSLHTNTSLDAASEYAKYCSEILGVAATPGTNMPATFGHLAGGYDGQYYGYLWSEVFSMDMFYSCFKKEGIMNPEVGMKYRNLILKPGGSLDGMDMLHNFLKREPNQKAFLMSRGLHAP
T3 sequence (P26358 whole entry): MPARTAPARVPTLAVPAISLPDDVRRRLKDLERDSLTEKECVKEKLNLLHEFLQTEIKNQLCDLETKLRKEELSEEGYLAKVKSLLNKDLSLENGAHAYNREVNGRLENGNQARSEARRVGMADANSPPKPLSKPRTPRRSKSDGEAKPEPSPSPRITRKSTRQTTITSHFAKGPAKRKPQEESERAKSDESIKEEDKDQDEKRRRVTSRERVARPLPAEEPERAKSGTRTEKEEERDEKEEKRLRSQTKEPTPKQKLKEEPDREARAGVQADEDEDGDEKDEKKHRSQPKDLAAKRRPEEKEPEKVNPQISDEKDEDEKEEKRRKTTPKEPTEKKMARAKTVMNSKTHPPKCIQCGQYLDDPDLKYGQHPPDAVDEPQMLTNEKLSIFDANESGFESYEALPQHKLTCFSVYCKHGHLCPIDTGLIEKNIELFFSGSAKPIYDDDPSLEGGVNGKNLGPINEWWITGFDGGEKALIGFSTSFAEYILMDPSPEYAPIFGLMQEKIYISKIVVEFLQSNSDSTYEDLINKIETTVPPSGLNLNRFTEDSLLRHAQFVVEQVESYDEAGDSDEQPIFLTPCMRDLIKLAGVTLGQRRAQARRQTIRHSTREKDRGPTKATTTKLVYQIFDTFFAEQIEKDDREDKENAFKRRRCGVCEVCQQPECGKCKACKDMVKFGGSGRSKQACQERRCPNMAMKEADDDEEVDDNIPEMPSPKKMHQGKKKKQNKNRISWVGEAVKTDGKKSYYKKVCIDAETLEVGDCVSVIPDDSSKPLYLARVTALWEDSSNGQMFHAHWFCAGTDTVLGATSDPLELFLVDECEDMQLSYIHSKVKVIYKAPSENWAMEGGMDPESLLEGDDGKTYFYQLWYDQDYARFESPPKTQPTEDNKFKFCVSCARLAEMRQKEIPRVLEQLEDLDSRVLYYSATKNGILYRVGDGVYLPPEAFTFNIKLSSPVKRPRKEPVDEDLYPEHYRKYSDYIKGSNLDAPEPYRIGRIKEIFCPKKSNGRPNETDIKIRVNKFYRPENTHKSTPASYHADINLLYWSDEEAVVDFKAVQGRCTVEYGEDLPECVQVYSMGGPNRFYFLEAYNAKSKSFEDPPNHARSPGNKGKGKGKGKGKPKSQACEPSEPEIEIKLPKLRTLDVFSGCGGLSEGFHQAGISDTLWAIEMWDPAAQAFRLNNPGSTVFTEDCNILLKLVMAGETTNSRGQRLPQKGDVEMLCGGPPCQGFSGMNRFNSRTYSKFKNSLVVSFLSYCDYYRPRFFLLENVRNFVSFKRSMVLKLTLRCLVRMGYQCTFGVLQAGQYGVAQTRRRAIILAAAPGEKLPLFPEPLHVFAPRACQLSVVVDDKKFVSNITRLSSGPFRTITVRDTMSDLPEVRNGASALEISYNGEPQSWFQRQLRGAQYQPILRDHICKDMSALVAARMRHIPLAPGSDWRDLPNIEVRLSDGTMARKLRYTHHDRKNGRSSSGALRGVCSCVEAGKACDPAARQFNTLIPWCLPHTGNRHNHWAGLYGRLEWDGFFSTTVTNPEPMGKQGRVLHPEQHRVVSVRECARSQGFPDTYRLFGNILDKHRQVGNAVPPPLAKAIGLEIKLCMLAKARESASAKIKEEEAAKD
T4 sequence (Q16864 whole entry): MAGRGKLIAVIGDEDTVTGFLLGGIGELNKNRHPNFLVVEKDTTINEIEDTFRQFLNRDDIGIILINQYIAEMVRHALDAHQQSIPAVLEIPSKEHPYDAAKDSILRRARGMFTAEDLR

## O=C(CCc1cn(-c2ccccc2)nc1-c1ccccc1)Oc1c(F)c(F)c(F)c(F)c1F [fragment 19, Pentafluorophenyl 3-(1,3-diphenyl-1H-pyrazol-4-yl)propanoate]
[1]
  R value (DMSO/fragment) for probe 1 labeling: 1.0

## Cn1cc(CC(=O)Oc2c(F)c(F)c(F)c(F)c2F)c2ccccc21 [fragment 22, Pentafluorophenyl 2-(1-methyl-1H-indol-3-yl)acetate]
TTR Transthyretin; 50 uM, in vitro
  R value (DMSO/fragment) for probe 1 labeling: 2.6
[2]; P26358_K45
  R value (DMSO/fragment) for probe 1 labeling: 0.9
[3]; Q16864_K6
  R value (DMSO/fragment) for probe 1 labeling: 1.1
[1]
  R value (DMSO/fragment) for probe 1 labeling: 1.5
[4]; P04179_K68
  R value (DMSO/fragment) for probe 1 labeling: 1.0

## COc1cc(CCC(=O)Oc2c(F)c(F)c(F)c(F)c2F)cc(OC)c1OC [fragment 23, Pentafluorophenyl 3-(3,4,5-trimethoxyphenyl)propanoate]
TTR Transthyretin; 50 uM, in vitro
  R value (DMSO/fragment) for probe 1 labeling: 1.0
[5]; P07954_K311
  R value (DMSO/fragment) for probe 1 labeling: 2.6

## O=C(Oc1c(F)c(F)c(F)c(F)c1F)c1ccc2ccccc2n1 [fragment 25, Pentafluorophenyl quinoline-2-carboxylate]
[2]
  isoTOP-ABPP reactivity ratio at lysine P26358_K45: 0.9
[1]
  isoTOP-ABPP reactivity ratio at lysine Q9BYT8_K253: 0.9

## O=C(CCc1coc2cc(F)ccc2c1=O)Oc1c(F)c(F)c(F)c(F)c1F [fragment 26, Pentafluorophenyl 3-(7-fluoro-4-oxo-4H-chromen-3-yl)propanoate]
[1]
  isoTOP-ABPP reactivity ratio at lysine Q9BYT8_K253: 1.2
[4]
  isoTOP-ABPP reactivity ratio at lysine P04179_K68: 1.2
[5]
  isoTOP-ABPP reactivity ratio at lysine P07954_K311: 2.4

## O=C(CN1C(=O)c2ccccc2C1=O)Oc1c(F)c(F)c(F)c(F)c1F [fragment 27, Pentafluorophenyl 2-(1,3-dioxoisoindolin-2-yl)acetate]
[4]
  isoTOP-ABPP reactivity ratio at lysine P04179_K68: 0.9

## CCn1cc(C(=O)Oc2c(F)c(F)c(F)c(F)c2F)c(=O)c2ccc(C)nc21 [fragment 28, Pentafluorophenyl 1-ethyl-7-methyl-4-oxo-1,4-dihydro-1,8-naphthyridine-3-carboxylate]
[4]
  isoTOP-ABPP reactivity ratio at lysine P04179_K68: 0.8

## O=C(CCc1cn(-c2ccccc2)nc1-c1ccccc1)Oc1ccc([N+](=O)[O-])cc1[N+](=O)[O-] [fragment 29, 2,4-Dinitrophenyl 3-(1,3-diphenyl-1H-pyrazol-4-yl)propanoate]
TTR Transthyretin; 50 uM, in vitro
  isoTOP-ABPP reactivity ratio at lysine P02766_K35: 1.6
[2]
  isoTOP-ABPP reactivity ratio at lysine P26358_K45: 0.9
[3]
  isoTOP-ABPP reactivity ratio at lysine Q16864_K6: 0.8
[1]
  isoTOP-ABPP reactivity ratio at lysine Q9BYT8_K253: 1.0

## O=C(Oc1ccc([N+](=O)[O-])cc1[N+](=O)[O-])C(c1ccccc1)c1ccccc1 [fragment 30, 2,4-Dinitrophenyl 2,2-diphenylacetate]
TTR Transthyretin; 50 uM, in vitro
  isoTOP-ABPP reactivity ratio at lysine P02766_K35: 1.5
[3]
  isoTOP-ABPP reactivity ratio at lysine Q16864_K6: 20.0
[1]
  isoTOP-ABPP reactivity ratio at lysine Q9BYT8_K253: 1.3
[4]
  isoTOP-ABPP reactivity ratio at lysine P04179_K68: 1.1
[5]
  isoTOP-ABPP reactivity ratio at lysine P07954_K311: 5.2

## O=C(Oc1ccc([N+](=O)[O-])cc1[N+](=O)[O-])c1cc(C(F)(F)F)cc(C(F)(F)F)c1 [fragment 31, 2,4-Dinitrophenyl 3,5-bis(trifluoromethyl)benzoate]
TTR Transthyretin; 50 uM, in vitro
  isoTOP-ABPP reactivity ratio at lysine P02766_K35: 16.1
TTR Transthyretin; TTR K35
  targeting of K35: preferentially targeted
[1]
  isoTOP-ABPP reactivity ratio at lysine Q9BYT8_K253: 1.5
[4]
  isoTOP-ABPP reactivity ratio at lysine P04179_K68: 1.5
[5]
  isoTOP-ABPP reactivity ratio at lysine P07954_K311: 1.4

## Cn1cc(CC(=O)Oc2ccc([N+](=O)[O-])cc2[N+](=O)[O-])c2ccccc21 [fragment 32, 2,4-Dinitrophenyl 2-(1-methyl-1H-indol-3-yl)acetate]
TTR Transthyretin; 50 uM, in vitro
  isoTOP-ABPP reactivity ratio at lysine P02766_K35: 3.1
[2]
  isoTOP-ABPP reactivity ratio at lysine P26358_K45: 1.0
[1]
  isoTOP-ABPP reactivity ratio at lysine Q9BYT8_K253: 1.7
[4]
  isoTOP-ABPP reactivity ratio at lysine P04179_K68: 1.1

## O=C(Oc1ccc([N+](=O)[O-])cc1[N+](=O)[O-])C1CCN(C(=O)OCc2ccccc2)CC1 [fragment 34, 1-Benzyl 4-(2,4-dinitrophenyl) piperidine-1,4-dicarboxylate]
TTR Transthyretin; 50 uM, in vitro, sol, 231
  isoTOP-ABPP ratio (R) at liganded lysine P02766_K35: 2.2
